Data as given in patent US5698411A, “Method for determining activity of enzymes in metabolically active whole cells” (priority 1995, dated 1997).
“And” between values parts separate entries of the source, which are not always exact repeats. Identical values can stand only once.

Key:
Type in all cases: cell-based, human
[1] = system: metabolically active whole cell; test: substrate panel in normals and HIV + patients, TB infection (Table 4); parameters: unit not given here
Procedure: A panel of assay compounds are assembled consisting of Ala-aminopeptidase and Lys-aminopeptidase, Dipeptidyl peptidase IV (Ala-Ala)2 rhodamine 110 and Cathepsin D to indicate possible TB infection in AIDS related cases.
A panel Of enzymatic substrates is performed consisting of Ala-aminopeptidase and Lys-aminopeptidase, Dipeptidyl peptidase IV (Ala-Ala)2 rhodamine 110 and Cathepsin D to indicate possible TB infection in AIDS related cases.

lymphocytes [2] = test: aberrant enzyme activities in febrile children, lymphocytes (Table 7)
monocytes = test: aberrant enzyme activities in febrile children, monocytes (Table 7)
granulocytes [3] = test: aberrant enzyme activities in febrile children, granulocytes (Table 7)
lymphocytes [4] = test: peptidase activity in leukemia and non-leukemia patients, lymphocytes (Table 6C); parameters: unit not given here
Description: (§1) Artificial intelligence was used to analyze data of cellular enzyme functions, and determine normal and disease states. Peptidases were used to distinguish leukemia from non-leukemia (output pattern). For input patterns lymphocyte and granulocyte cell types were used with aminopeptidases, cathepsins and dipeptidylpeptidase enzyme activities. In this Example, illustrated in Tables 6A-6C, three normals and three leukemia patients were used as known output patterns for the neural network to learn (in practice, the larger the learning set the more accurate unknown prediction will be). Unknowns were then presented to the learned algorithm as shown in the test case examples. Clinical diagnosis was confirmed by physicians. The trained neural network was able to correctly classify the leukemia from the non-leukemia.

granulocytes [5] = test: peptidase activity in leukemia and non-leukemia patients, granulocytes (Table 6C); parameters: unit not given here
Description: as §1

CC(C)C[C@H](NC(=O)CN)C(=O)Nc1ccc2c(c1)Oc1cc(NC(=O)[C@H](CC(C)C)NC(=O)CN)ccc1C21OC(=O)c2ccccc21 [GL, (H Gly--Leu)2 Rho 110 .2FTA]
MEAN DELTA FL ([1]; HIV + PATIENTS): 16.3
MEAN DELTA FL ([1]; NORMALS): 9.5
aberrant enzyme activity, LYMPHS (lymphocytes [2]; P92 Adenitis): .smallcircle.
aberrant enzyme activity, LYMPHS (lymphocytes [2]; P97 Pyelonephritis): .smallcircle.
aberrant enzyme activity, LYMPHS (lymphocytes [2]; P103 Viral Syndrome): .smallcircle.
aberrant enzyme activity, MONOS (monocytes; P92 Adenitis): .smallcircle.
aberrant enzyme activity, MONOS (monocytes; P97 Pyelonephritis): .smallcircle.
aberrant enzyme activity, MONOS (monocytes; P103 Viral Syndrome): .smallcircle.
aberrant enzyme activity, GRANS (granulocytes [3]; P92 Adenitis): .smallcircle.
aberrant enzyme activity, GRANS (granulocytes [3]; P103 Viral Syndrome): .smallcircle.

C[C@@H](O)[C@H](N)C(=O)N1CCC[C@H]1C(=O)Nc1ccc2c(c1)Oc1cc(NC(=O)[C@@H]3CCCN3C(=O)[C@@H](N)[C@@H](C)O)ccc1C21OC(=O)c2ccccc21 [THR--PRO*]
MEAN DELTA FL ([1]; HIV + PATIENTS): 10.2
MEAN DELTA FL ([1]; NORMALS): 17.3

NC(=O)CC[C@H](N)C(=O)N[C@@H](CO)C(=O)Nc1ccc2c(c1)Oc1cc(NC(=O)[C@H](CO)NC(=O)[C@@H](N)CCC(N)=O)ccc1C21OC(=O)c2ccccc21 [QS, (H-L-Gln--Ser)2 Rho 110 .2TFA]
enzyme activity, Lymphs (lymphocytes [4]; J4 11/21/91 acute leuk.): 0.05
enzyme activity, Lymphs (lymphocytes [4]; J4 12/2/91 A L): 0.01
enzyme activity, Lymphs (lymphocytes [4]; J4 12/3/91 acute leuk.): 0.06
enzyme activity, Lymphs (lymphocytes [4]; J5 11/27/91 A M L): 0.07
enzyme activity, Lymphs (lymphocytes [4]; J19 11/27/91 C L L): 0.06
enzyme activity, Lymphs (lymphocytes [4]; J22 12/2/91 A M L): 0.02
enzyme activity, Lymphs (lymphocytes [4]; J22 12/9/91 A M L): 0.02
enzyme activity, Lymphs (lymphocytes [4]; N191 normal): 0.02
enzyme activity, Lymphs (lymphocytes [4]; N192 normal): 0.03
enzyme activity, Lymphs (lymphocytes [4]; N193 normal): 0.03
enzyme activity, Lymphs (lymphocytes [4]; N194 normal): 0.02
enzyme activity, Lymphs (lymphocytes [4]; N195 normal): 0.04
enzyme activity, Lymphs (lymphocytes [4]; N197 normal): 0.06
enzyme activity, Lymphs (lymphocytes [4]; N199 normal): 0.02
enzyme activity, Lymphs (lymphocytes [4]; N200 normal): 0.01
enzyme activity, Lymphs (lymphocytes [4]; N201 normal): 0.02
enzyme activity, Lymphs (lymphocytes [4]; N202 normal): 0.01
enzyme activity, Lymphs (lymphocytes [4]; N206 normal): 0.04
enzyme activity, Lymphs (lymphocytes [4]; P68 tachycardia): 0.02
enzyme activity, Lymphs (lymphocytes [4]; P69 pancreatic CA): 0.31
enzyme activity, Lymphs (lymphocytes [4]; P70 cirrhosis/hemobilia): 0.04
enzyme activity, Lymphs (lymphocytes [4]; P71 ac. pyelonephritis): 0.05
enzyme activity, Grans (granulocytes [5]; J4 11/21/91 acute leuk.): 0.22
enzyme activity, Grans (granulocytes [5]; J4 12/2/91 A L): 0.44
enzyme activity, Grans (granulocytes [5]; J4 12/3/91 acute leuk.): 0.19
enzyme activity, Grans (granulocytes [5]; J22 12/2/91 A M L): 0.10
enzyme activity, Grans (granulocytes [5]; J22 12/9/91 A M L): 0.24
enzyme activity, Grans (granulocytes [5]; N191 normal): 0.19
enzyme activity, Grans (granulocytes [5]; N192 normal): 0.15
enzyme activity, Grans (granulocytes [5]; N193 normal): 0.14
enzyme activity, Grans (granulocytes [5]; N194 normal): 0.07
enzyme activity, Grans (granulocytes [5]; N195 normal): 0.21
enzyme activity, Grans (granulocytes [5]; N197 normal): 0.24
enzyme activity, Grans (granulocytes [5]; N199 normal): 0.05
enzyme activity, Grans (granulocytes [5]; N200 normal): 0.06
enzyme activity, Grans (granulocytes [5]; N201 normal): 0.09
enzyme activity, Grans (granulocytes [5]; N202 normal): 0.08
enzyme activity, Grans (granulocytes [5]; N206 normal): 0.27
enzyme activity, Grans (granulocytes [5]; P68 tachycardia): 0.33
enzyme activity, Grans (granulocytes [5]; P69 pancreatic CA): 0.37
enzyme activity, Grans (granulocytes [5]; P70 cirrhosis/hemobilia): 0.19
enzyme activity, Grans (granulocytes [5]; P71 ac. pyelonephritis): 0.51
aberrant enzyme activity, LYMPHS (lymphocytes [2]; P92 Adenitis): .smallcircle.
aberrant enzyme activity, LYMPHS (lymphocytes [2]; P97 Pyelonephritis): .smallcircle.
aberrant enzyme activity, LYMPHS (lymphocytes [2]; P103 Viral Syndrome): .smallcircle.
aberrant enzyme activity, MONOS (monocytes; P92 Adenitis): .smallcircle.
aberrant enzyme activity, MONOS (monocytes; P97 Pyelonephritis): .smallcircle.
aberrant enzyme activity, GRANS (granulocytes [3]; P97 Pyelonephritis): .smallcircle.

NCC(=O)N1CCC[C@H]1C(=O)Nc1ccc2c(c1)Oc1cc(NC(=O)[C@@H]3CCCN3C(=O)CN)ccc1C21OC(=O)c2ccccc21 [GLY--PRO*]
MEAN DELTA FL ([1]; HIV + PATIENTS): 21.4
MEAN DELTA FL ([1]; HIV + PATIENTS, listed as GLY--PRO****): 18.4
MEAN DELTA FL ([1]; NORMALS): 50.9
MEAN DELTA FL ([1]; NORMALS, listed as GLY--PRO****): 46.7

NC(=O)CC[C@H](N)C(=O)N[C@@H](CO)C(=O)Nc1ccc2c(c1)Oc1cc(NC(=O)[C@H](CO)NC(=O)[C@@H](N)CCC(N)=O)ccc1C21OC(=O)c2ccccc21 (relative stereo) [GLN--SER*]
MEAN DELTA FL ([1]; HIV + PATIENTS): 13.7 and 12.7
MEAN DELTA FL ([1]; NORMALS): 11.9 and 6.1
